Experimental data from US7423053B2, “4-Aminothiazole derivatives” (Hoffmann-La Roche Inc., priority 2004, dated 2008).

Legend:
Format in all cases: biochemical
Conditions in all cases: Rb substrate, ATP at 3x Km, Ki=IC50/(1+S/Km)
human cyclin B-CDK1 = human cyclin B-CDK1 (Homo sapiens, UniProt P06493); assay: CDK1 HTRF kinase assay (Ki measurement)
Procedure: (§1) This experiment was conducted using recombinant human cyclin B-CDK1, human cyclin E-CDK2 or human cyclin D1-CDK4 complexes. GST-cyclinE (GST-cycE), CDK2, GST-cyclinB (GST-cycB), CDK1, GST-CDK4 and cyclin D1 (cycD1) cDNA clones in baculovirus vectors were provided by Dr. W. Harper at the Baylor College of Medicine, Houston, Tex. Proteins were co-expressed in High Five™ insect cells and the complex was purified on glutathione Sepharose resin (Pharmacia, Piscataway, N.J.) as previously described (Harper, J. W. et al. Cell 1993, 75, 805-816). […]
(§2) The expression of the 62 Kd protein was under the control of an IPTG inducible promoter in an M15 E. coli strain. […] Purified Rb fusion protein stocks were quantitated for protein concentration, aliquoted, and stored at −70° C.
(§3) Using the protein constructs described above, CDK1, CDK2, and CDK4 HTRF assays were set up. These were done in 96-well format and read in 384-well plate format. […]
(§4) In the CDK4 assay, test compounds were diluted to 3× ntheir final concentrations in 25 mM Hepes, pH 7.0, 6.25 mM MgCl2, 1.5 mM DTT, 135 μM ATP. […] The plates were read using either ViewLux or Victor V readers (PerkinElmer Life Sciences) using an excitation wavelength of 340 nm and dual emission wavelengths of 615 nm and 665 nm. […]

human cyclin E-CDK2 = human cyclin E-CDK2 (Homo sapiens, UniProt P24941); assay: CDK2 HTRF kinase assay (Ki measurement)
Procedure: as §1, §2, §3, §4

human cyclin D1-CDK4 = human cyclin D1-CDK4 (Homo sapiens, UniProt P11802); assay: CDK4 HTRF kinase assay (Ki measurement)
human cyclin D1-CDK4, sequence (P11802 whole entry): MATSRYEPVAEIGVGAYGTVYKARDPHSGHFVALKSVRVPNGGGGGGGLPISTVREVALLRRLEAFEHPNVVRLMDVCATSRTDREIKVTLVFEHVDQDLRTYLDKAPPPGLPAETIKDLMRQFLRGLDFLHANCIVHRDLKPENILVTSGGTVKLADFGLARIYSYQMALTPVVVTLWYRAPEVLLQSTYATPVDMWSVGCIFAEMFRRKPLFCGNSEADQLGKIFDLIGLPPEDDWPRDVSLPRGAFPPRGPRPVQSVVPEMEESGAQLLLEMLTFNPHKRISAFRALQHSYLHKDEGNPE
human cyclin D1-CDK4, sequence (P24385 whole entry partner): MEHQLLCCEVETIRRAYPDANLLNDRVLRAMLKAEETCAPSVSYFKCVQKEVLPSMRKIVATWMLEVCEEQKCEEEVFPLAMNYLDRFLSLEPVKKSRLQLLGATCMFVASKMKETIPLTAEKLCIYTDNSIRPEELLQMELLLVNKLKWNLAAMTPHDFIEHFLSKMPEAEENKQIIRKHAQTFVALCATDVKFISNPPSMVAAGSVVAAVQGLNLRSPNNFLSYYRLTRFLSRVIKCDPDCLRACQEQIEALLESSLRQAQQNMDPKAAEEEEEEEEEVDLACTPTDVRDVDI
Procedure: as §1, §2, §3, §4

human cyclin B-CDK1, sequence (P06493 whole entry): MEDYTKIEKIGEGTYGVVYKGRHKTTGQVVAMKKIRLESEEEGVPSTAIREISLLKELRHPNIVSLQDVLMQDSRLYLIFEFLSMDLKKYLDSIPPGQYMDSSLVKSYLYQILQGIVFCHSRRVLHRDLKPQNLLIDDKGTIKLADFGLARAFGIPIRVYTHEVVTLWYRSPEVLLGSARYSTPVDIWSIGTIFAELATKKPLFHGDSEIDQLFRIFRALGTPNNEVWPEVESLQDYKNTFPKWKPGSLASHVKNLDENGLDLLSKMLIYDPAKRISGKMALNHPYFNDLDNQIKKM
human cyclin B-CDK1, sequence (P14635 whole entry partner): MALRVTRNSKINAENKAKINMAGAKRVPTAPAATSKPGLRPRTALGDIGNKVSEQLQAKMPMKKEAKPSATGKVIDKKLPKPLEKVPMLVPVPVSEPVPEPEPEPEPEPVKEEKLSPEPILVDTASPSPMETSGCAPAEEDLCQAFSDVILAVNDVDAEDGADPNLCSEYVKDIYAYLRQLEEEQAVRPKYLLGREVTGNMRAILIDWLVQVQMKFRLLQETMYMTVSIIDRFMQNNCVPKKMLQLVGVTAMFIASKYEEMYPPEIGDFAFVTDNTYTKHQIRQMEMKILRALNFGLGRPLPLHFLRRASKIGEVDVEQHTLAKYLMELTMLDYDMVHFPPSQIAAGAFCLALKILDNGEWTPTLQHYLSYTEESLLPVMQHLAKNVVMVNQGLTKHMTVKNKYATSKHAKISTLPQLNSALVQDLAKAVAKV

| Ki (human cyclin B-CDK1) [nM] | Ki (human cyclin E-CDK2) [nM] | Ki (human cyclin D1-CDK4) [nM] | Compound |
| --- | --- | --- | --- |
| 1 | 1 | 2 | COc1ccc(F)c(F)c1C(=O)c1sc(NC2CCN(S(C)(=O)=O)CC2)nc1N [Example 14, [4-Amino-2-(1-methanesulfonylpiperidin-4-ylamino)thiazol-5-yl]-(2,3-difluoro-6-methoxyphenyl)methanone] |
| 3 | 5 | 6 | CS(=O)(=O)N1CCC(Nc2nc(N)c(C(=O)c3c(F)cccc3F)s2)CC1 [Example 17, [4-Amino-2-(1-methanesulfonyl-piperidin-4-ylamino)thiazol-5-yl]-(2,6-difluorophenyl)methanone] |
